# Laboratory results: patent US20220289794A1, “SYNTHETIC ANTIMICROBIAL PEPTIDES” (priority 2019, published 2022)
# Non-standard residues stand in square brackets, D forms with d. Residues, ends and D or L forms follow the SMILES beside them. Dip = N[C@H](C(=O)O)C(c1ccccc1)c1ccccc1; 2Nal = N[C@@H](Cc1ccc2ccccc2c1)C(=O)O
# Experiments:
# [1] = test system: Methicillin-resistant Staphylococcus aureus MRSA (ATCC BAA-1556); conditions: ATCC BAA-1556
# [2] = test system: S. aureus ATCC 29213; conditions: ATCC 29213
# [3] = test system: Pseudomonas aeruginosa (ATCC 27883); conditions: ATCC 27883
# [4] = test system: Escherichia coli (ATCC 25922); conditions: ATCC 25922
# [5] = test system: human red blood cells; parameters: unit not given beside the values
structure (smiles),measurement,setting,value
"N=C(N)NCCC[C@H](NC(=O)[C@H](CCCNC(=N)N)NC(=O)[C@H](CCCNC(=N)N)NC(=O)[C@@H](N)CCCNC(=N)N)C(=O)N[C@@H](Cc1c[nH]c2ccccc12)C(=O)N[C@@H](Cc1ccc2ccccc2c1)C(=O)N[C@@H](Cc1ccc2ccccc2c1)C(=O)O [IFX-029-1, NH2-R-R-R-R-Trp-NaI-NaI-OH] (H-RRRRW[2Nal][2Nal]-OH)",MIC MRSA ATCC BAA-1556,[1],3.1 µg/mL
same,MIC S. aureus ATCC 29213,[2],3.1 µg/mL
same,MIC P. aeruginosa ATCC 27883,[3],50 µg/mL
same,MIC E. coli ATCC 25922,[4],12.5 µg/mL
same,HC50,[5],400
"N=C(N)NCCC[C@@H]1NC(=O)[C@H](CCCNC(=N)N)NC(=O)[C@H](CCCNC(=N)N)NC(=O)[C@H](C(c2ccccc2)c2ccccc2)NC(=O)[C@H](C(c2ccccc2)c2ccccc2)NC(=O)[C@H](CCCNC(=N)N)NC1=O [IFX-010, c[Arg-Arg-Arg-Arg-Dip-Dip]] (cyclo([Dip][Dip]RRRR))",MIC MRSA ATCC BAA-1556,[1],6.2 µg/mL
same,MIC S. aureus ATCC 29213,[2],6.2 µg/mL
same,MIC P. aeruginosa ATCC 27883,[3],25 µg/mL
same,MIC E. coli ATCC 25922,[4],50 µg/mL
same,HC50,[5],270
"N=C(N)NCCC[C@H](NC(=O)[C@H](CCCNC(=N)N)NC(=O)[C@H](CCCNC(=N)N)NC(=O)[C@@H](N)CCCNC(=N)N)C(=O)N[C@@H](Cc1c[nH]c2ccccc12)C(=O)N[C@H](C(=O)N[C@H](C(=O)O)C(c1ccccc1)c1ccccc1)C(c1ccccc1)c1ccccc1 [IFX-026-1, NH2-R-R-R-R-Trp-Dip-Dip-OH] (H-RRRRW[Dip][Dip]-OH)",MIC MRSA ATCC BAA-1556,[1],6.2 µg/mL
same,MIC S. aureus ATCC 29213,[2],6.2 µg/mL
same,MIC P. aeruginosa ATCC 27883,[3],25 µg/mL
same,MIC E. coli ATCC 25922,[4],12.5 µg/mL
same,HC50,[5],430
"N=C(N)NCCC[C@H]1NC(=O)[C@@H](CCCNC(=N)N)NC(=O)[C@@H](CCCNC(=N)N)NC(=O)[C@@H](Cc2c[nH]c3ccccc23)NC(=O)[C@@H](Cc2c[nH]c3ccccc23)NC(=O)[C@@H](Cc2c[nH]c3ccccc23)NC(=O)[C@@H](Cc2c[nH]c3ccccc23)NC(=O)[C@@H](CCCNC(=N)N)NC(=O)[C@@H](CCCNC(=N)N)NC1=O [IFX-037, c[arg-arg-arg-arg-arg-trp-trp-trp-trp]]",MIC MRSA ATCC BAA-1556,[1],6.2 µg/mL
same,MIC S. aureus ATCC 29213,[2],3.1 µg/mL
same,MIC P. aeruginosa ATCC 27883,[3],25 µg/mL
same,MIC E. coli ATCC 25922,[4],12.5 µg/mL
same,HC50,[5],670
"N=C(N)NCCC[C@@H]1NC(=O)[C@H](CCCNC(=N)N)NC(=O)[C@H](CCCNC(=N)N)NC(=O)[C@@H](Cc2c[nH]c3ccccc23)NC(=O)[C@@H](Cc2c[nH]c3ccccc23)NC(=O)[C@@H](Cc2c[nH]c3ccccc23)NC(=O)[C@@H](Cc2c[nH]c3ccccc23)NC(=O)[C@H](CCCNC(=N)N)NC1=O [IFX-035, c[Arg-Arg-Arg-Arg-trp-trp-trp-trp]] (cyclo(RRRR[dW][dW][dW][dW]))",MIC MRSA ATCC BAA-1556,[1],6.2 µg/mL
same,MIC S. aureus ATCC 29213,[2],6.2 µg/mL
same,MIC P. aeruginosa ATCC 27883,[3],25 µg/mL
same,MIC E. coli ATCC 25922,[4],12.5 µg/mL
same,HC50,[5],670
"NCCCC[C@@H]1NC(=O)[C@H](CCCCN)NC(=O)[C@H](CCCCN)NC(=O)[C@H](C(c2ccccc2)c2ccccc2)NC(=O)[C@H](C(c2ccccc2)c2ccccc2)NC(=O)[C@H](C(c2ccccc2)c2ccccc2)NC(=O)[C@H](CCCCN)NC(=O)[C@H](CCCCN)NC1=O [IFX-015, c[Lys-Lys-Lys-Lys-Lys-Dip-Dip-Dip]] (cyclo([Dip][Dip][Dip]KKKKK))",MIC MRSA ATCC BAA-1556,[1],12.5 µg/mL
same,MIC S. aureus ATCC 29213,[2],6.2 µg/mL
same,MIC P. aeruginosa ATCC 27883,[3],>100 µg/mL
same,MIC E. coli ATCC 25922,[4],50 µg/mL
same,HC50,[5],480
"N=C(N)NCCC[C@@H]1NC(=O)[C@@H](CCCNC(=N)N)NC(=O)[C@H](CCCNC(=N)N)NC(=O)[C@@H](Cc2c[nH]c3ccccc23)NC(=O)[C@H](Cc2c[nH]c3ccccc23)NC(=O)[C@@H](Cc2c[nH]c3ccccc23)NC(=O)[C@H](Cc2c[nH]c3ccccc23)NC(=O)[C@@H](CCCNC(=N)N)NC1=O [IFX-033, c[Arg-arg-Arg-arg-Trp-trp-Trp-trp]] (cyclo(R[dR]R[dR]W[dW]W[dW]))",MIC MRSA ATCC BAA-1556,[1],6.2 µg/mL
same,MIC S. aureus ATCC 29213,[2],6.2 µg/mL
same,MIC P. aeruginosa ATCC 27883,[3],25 µg/mL
same,MIC E. coli ATCC 25922,[4],12.5 µg/mL
same,HC50,[5],95
"N=C(N)NCCC[C@H](NC(=O)[C@H](CCCNC(=N)N)NC(=O)[C@@H](N)CCCNC(=N)N)C(=O)N[C@@H](Cc1c[nH]c2ccccc12)C(=O)N[C@@H](Cc1ccc2ccccc2c1)C(=O)N[C@@H](Cc1ccc2ccccc2c1)C(=O)O [IFX-023-1, NH2-R-R-R-Trp-NaI-NaI-OH] (H-RRRW[2Nal][2Nal]-OH)",MIC MRSA ATCC BAA-1556,[1],6.2 µg/mL
same,MIC S. aureus ATCC 29213,[2],6.2 µg/mL
same,MIC P. aeruginosa ATCC 27883,[3],25 µg/mL
same,MIC E. coli ATCC 25922,[4],12.5 µg/mL
same,HC50,[5],495
